Legend:
Format in all cases: in vivo
[1] = system: barnyardgrass (Echinochloa crus-galli); assay: Test A preemergence soil spray, visual injury rating 0-100; settings: 10 days, 0 = no effect, 100 = complete control
Outline: (§1)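 Rating: visual, day 10, untreated plants as reference, 0 no effect to 100 full control. Plants were in loam-sand and were treated either preemergence via directed soil spray or postemergence at the one- to two-leaf stage.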

[2] = system: blackgrass (Alopecurus myosuroides); assay: as above; settings: 10 days, 0 = no effect, 100 = complete control
Outline: as §1

[3] = system: corn (Zea mays); assay: as above; settings: 10 days, 0 = no effect, 100 = complete control
Outline: as §1

[4] = system: green foxtail (Setaria viridis); assay: as above; settings: 10 days, 0 = no effect, 100 = complete control
Outline: as §1

[5] = system: kochia (Bassia scoparia); assay: as above; settings: 10 days, 0 = no effect, 100 = complete control
Outline: as §1

[6] = system: oat, wild (wild oat, Avena fatua); assay: as above; settings: 10 days, 0 = no effect, 100 = complete control
Outline: as §1

[7] = system: palmer (palmer amaranth, palmer pigweed, Amaranthus palmeri); assay: as above; settings: 10 days, 0 = no effect, 100 = complete control
Outline: as §1

[8] = system: ragweed (common ragweed, Ambrosia artemisiifolia); assay: as above; settings: 10 days, 0 = no effect, 100 = complete control
Outline: as §1

[9] = system: ryegrass, Italian (italian ryegrass, Lolium multiflorum); assay: as above; settings: 10 days, 0 = no effect, 100 = complete control
Outline: as §1

[10] = system: soybean (Glycine max); assay: as above; settings: 10 days, 0 = no effect, 100 = complete control
Outline: as §1

[11] = system: wheat (Triticum aestivum); assay: as above; settings: 10 days, 0 = no effect, 100 = complete control
Outline: as §1

[12] = system: barnyardgrass (Echinochloa crus-galli); assay: Test A postemergence application, visual injury rating 0-100; settings: Postemergence
Outline: as §1

[13] = system: blackgrass (Alopecurus myosuroides); assay: as above; settings: Postemergence
Outline: as §1

[14] = system: corn (Zea mays); assay: as above; settings: Postemergence
Outline: as §1

[15] = system: galium (catchweed bedstraw, Galium aparine); assay: as above; settings: Postemergence
Outline: as §1

[16] = system: green foxtail (Setaria viridis); assay: as above; settings: Postemergence
Outline: as §1

[17] = system: horseweed (Erigeron canadensis); assay: as above; settings: Postemergence
Outline: as §1

[18] = system: kochia (Bassia scoparia); assay: as above; settings: Postemergence
Outline: as §1

[19] = system: oat, wild (wild oat, Avena fatua); assay: as above; settings: Postemergence
Outline: as §1

[20] = system: palmer (palmer amaranth, palmer pigweed, Amaranthus palmeri); assay: as above; settings: Postemergence
Outline: as §1

[21] = system: ragweed (common ragweed, Ambrosia artemisiifolia); assay: as above; settings: Postemergence
Outline: as §1

[22] = system: ryegrass, Italian (italian ryegrass, Lolium multiflorum); assay: as above; settings: Postemergence
Outline: as §1

[23] = system: soybean (Glycine max); assay: as above; settings: Postemergence
Outline: as §1

[24] = system: wheat (Triticum aestivum); assay: as above; settings: Postemergence
Outline: as §1

[25] = system: barnyardgrass (Echinochloa crusgalli); assay: Test B flooded paddy test, visual plant response rating 0-100; settings: 250 g ai/ha, Flood, applied to paddy water, evaluated after 13 days
Outline: (§2)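 Visual scores versus untreated controls were recorded 13 days after treatment of greenhouse-held plants. At the 2-leaf stage, pots were flooded 3 cm above the soil surface and compounds added straight to the water.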

[26] = system: ducksalad (Heteranthera limosa); assay: as above; settings: 250 g ai/ha, Flood, applied to paddy water, evaluated after 13 days
Outline: as §2

[27] = system: rice (Oryza sativa); assay: as above; settings: 250 g ai/ha, Flood, applied to paddy water, evaluated after 13 days
Outline: as §2

[28] = system: sedge, umbrella (small-flower umbrella sedge, Cyperus difformis); assay: as above; settings: 250 g ai/ha, Flood, applied to paddy water, evaluated after 13 days
Outline: as §2

[29] = 31 g ai/ha, greenhouse 10 days, 0 no effect, 100 complete control
[30] = 125 g ai/ha, 10 days, 0 is no effect, 100 is complete control

CC(=O)COC(=O)C1C=CC(NC(=O)C2(C)CN(c3cc(Cl)cc(Cl)c3)C(=O)O2)C1 (stereo not shown) [Compound 67]
Barnyardgrass plant response rating (0-100) ([1]; 31 g ai/ha): 50
Barnyardgrass plant response rating (0 to 100 scale) ([1]; 125 g ai/ha): 90
Blackgrass plant response rating (0-100) ([2]; 31 g ai/ha): 20
Blackgrass plant response rating (0 to 100 scale) ([2]; 125 g ai/ha): 70
Corn plant response rating (0-100) ([3]; 31 g ai/ha): 0
Corn plant response rating (0 to 100 scale) ([3]; 125 g ai/ha): 70
Foxtail, Green plant response rating (0-100) ([4]; 31 g ai/ha): 20
Foxtail, Green plant response rating (0 to 100 scale) ([4]; 125 g ai/ha): 90
Kochia plant response rating (0-100) ([5]; 31 g ai/ha): 70
Kochia plant response rating (0 to 100 scale) ([5]; 125 g ai/ha): 80
Oat, Wild plant response rating (0-100) ([6]; 31 g ai/ha): 40
Oat, Wild plant response rating (0 to 100 scale) ([6]; 125 g ai/ha): 70
Amaranth, Palmer plant response rating (0-100) ([7]; 31 g ai/ha): 90
Amaranth, Palmer plant response rating (0 to 100 scale) ([7]; 125 g ai/ha): 100
Ragweed plant response rating (0-100) ([8]; 31 g ai/ha): 0
Ragweed plant response rating (0 to 100 scale) ([8]; 125 g ai/ha): 60
Ryegrass, Italian plant response rating (0-100) ([9]; 31 g ai/ha): 70
Ryegrass, Italian plant response rating (0 to 100 scale) ([9]; 125 g ai/ha): 80
Soybean plant response rating (0-100) ([10]; 31 g ai/ha): 0
Soybean plant response rating (0 to 100 scale) ([10]; 125 g ai/ha): 30
Wheat plant response rating (0-100) ([11]; 31 g ai/ha): 30
Wheat plant response rating (0 to 100 scale) ([11]; 125 g ai/ha): 90
Barnyardgrass plant response rating (0 to 100 scale) [12, 29]: 100
Barnyardgrass plant response rating (0 to 100 scale) [12, 30]: 100
Blackgrass plant response rating (0 to 100 scale) [13, 29]: 90
Blackgrass plant response rating (0 to 100 scale) [13, 30]: 100
Corn plant response rating (0 to 100 scale) [14, 29]: 100
Corn plant response rating (0 to 100 scale) [14, 30]: 100
Galium plant response rating (0 to 100 scale) [15, 29]: 80
Galium plant response rating (0 to 100 scale) [15, 30]: 90
Foxtail, Green plant response rating (0 to 100 scale) [16, 29]: 90
Foxtail, Green plant response rating (0 to 100 scale) [16, 30]: 90
Horseweed plant response rating (0 to 100 scale) [17, 29]: 50
Horseweed plant response rating (0 to 100 scale) [17, 30]: 70
Kochia plant response rating (0 to 100 scale) [18, 29]: 70
Kochia plant response rating (0 to 100 scale) [18, 30]: 70
Oat, Wild plant response rating (0 to 100 scale) [19, 29]: 90
Oat, Wild plant response rating (0 to 100 scale) [19, 30]: 90
Amaranth, Palmer / Pigweed, Palmer plant response rating (0 to 100 scale) [20, 29]: 80
Amaranth, Palmer / Pigweed, Palmer plant response rating (0 to 100 scale) [20, 30]: 90
Ragweed plant response rating (0 to 100 scale) [21, 29]: 50
Ragweed plant response rating (0 to 100 scale) [21, 30]: 80
Ryegrass, Italian plant response rating (0 to 100 scale) [22, 29]: 70
Ryegrass, Italian plant response rating (0 to 100 scale) [22, 30]: 90
Soybean plant response rating (0 to 100 scale) [23, 29]: 80
Soybean plant response rating (0 to 100 scale) [23, 30]: 80
Wheat plant response rating (0 to 100 scale) [24, 29]: 90
Wheat plant response rating (0 to 100 scale) [24, 30]: 90
Plant response rating, Barnyardgrass (0 to 100 scale, 0 is no effect and 100 is complete control) [25]: 65
Plant response rating, Ducksalad (0 to 100 scale, 0 is no effect and 100 is complete control) [26]: 98
Plant response rating, Rice (0 to 100 scale, 0 is no effect and 100 is complete control) [27]: 30
Plant response rating, Sedge, Umbrella (0 to 100 scale, 0 is no effect and 100 is complete control) [28]: 100
